Values quoted from earlier work, collected in patent US20040213782A1, “Compositions of an aquaporin modulating agent and an aqueous humor modulating agent for the treatment of elevated intraocular pressure” (Pharmacia Corporation, priority 2003, published 2004).

Experiments:
AQP1 = settings: epididymis of rats; Yu et al. (2002)
[1] = among corticosteroids; ophthalmic or systemic administration
AQP2 = settings: kidney of cardiomyopathic hamsters; Wong and Tsui (2002)

Row | Compound | expression of AQP2 (AQP2) | also measured
1 | CC(=O)Nc1nnc(S(N)(=O)=O)s1 [acetazolamide] | – | level of AQP1 expression (AQP1): significant decrease
2 | C[C@@H]1C[C@H]2[C@@H]3CCC4=CC(=O)C=C[C@]4(C)[C@@]3(F)[C@@H](O)C[C@]2(C)[C@@]1(O)C(=O)CO [dexamethasone] | – | increase in intraocular pressure [1]: most pronounced increase
3 | CCOC(=O)[C@H](CCc1ccccc1)N[C@@H](C)C(=O)N1CCC[C@H]1C(=O)O [enalapril] | significant decrease | –
4 | angiotensin II (DRVYIHPF; Angiotensin-2; UniProt P01019 25-32, looked up) [peptide that increases the expression of AQP2 in the kidney of cardiomyopathic hamsters] | increases | –
